Test results taken from patent US12697277B2, “Materials and methods for mitigating the presence of nitrosamines in packaging using an active agent” (CSP TECHNOLOGIES, INC., priority 2024, dated 2026).

Columns and labels:
[1] = Effect of active agent (sachet or film) on nitrite in GC vial headspace, cyclohexene derivative method; assay type: physicochemical; conditions: 50 mg active in sachet hanging in GC vial headspace over sulfuric acid + potassium nitrite; 24 hours at 60° C.
Experimental: A 1 inch×0.5 inch tea bag sachet containing 50 mg±2 mg of a potential active agent, or a 1 cm^2 film was placed hanging in a GC vial headspace. […] 1 mL of 1M sulfuric acid solution and 1 mL of potassium nitrite solution (1 g/10 mL) was placed into the GC vial. The film or sachet was placed suspended inside the GC vial, and sealed, and aged for 24 hours at 60° C. GC-MS was conducted on the headspace using the derivative method. The methodology is based on a chemically derivative method that reacts all available NOx or nitrite directly into a measurable compound (cyclohexene) using acidified sodium cyclamate. The reaction is shown below:
It will be understood that both the nitrite anion (NO2^−) and […] (HNO2), with the relative amounts being determined by solution pH, will be quantified by this method, and gaseous NOx can also be quantified, due to its equilibrium with aqueous phase species. For simplicity, results of this test may be described as measuring the amount of nitrite.

[2] = Film and sachet comparison in monolayer bottles: nitrite; assay type: physicochemical; conditions: raw active in sachet in monolayer bottle; 60° C., 40% RH, 6 days
Experimental: For raw active samples, the appropriate mass was weighed as shown in Table 20 and was placed in a sachet which was closed. Films were cut to 120 mm×65 mm. Film thickness was from about 0.3 mm to about 1.2 mm.
A 20 mL scintillation vial was placed in each bottle. 3.5 mL of potassium nitrite and 3.5 mL of sulfuric acid were added to the scintillation vial. GC-MS was conducted on the headspace using the cyclohexene derivative method for nitrite. Samples were aged at 60° C. and 40% RH for 6 days.

[3] = NO adsorption by raw active and film, fixed bed reactor; assay type: physicochemical; conditions: raw active, 250 mg, 22° C.
Experimental: (§1) NO and NO2 adsorption experiments were conducted within a fixed bed reactor at 22° C. In each experimental run, 250 mg of the sample was meticulously deposited onto a fused silica frit positioned within a vertical quartz reactor, which boasted an internal diameter of 6 mm. Prior to each experiment, the system underwent a thorough purge using nitrogen (N) to eliminate any residual gases and ensure a clean starting point. Following the purge, calibration procedures were meticulously carried out to guarantee the accuracy of the concentration measurements. This involved precisely calibrating the ROSEMOUNT NGA 2000 detector to establish a reliable baseline for the subsequent experiments. […] Throughout the experiments, the concentrations of outlet gases, namely NO and NO2, were continuously monitored. This real-time analysis was facilitated by the highly sensitive ROSEMOUNT NGA 2000 detector (St. Louis, MO, USA). To account for any background signals or potential interferences, a blank experiment was conducted using an empty reactor. The obtained results from this blank experiment were subtracted from the measurements of the sample, ensuring that the recorded concentrations accurately reflected the adsorption behavior of NO2 by the sample. This meticulous approach enhances the reliability and precision of the experimental findings.

[4] = NO2 adsorption by raw active and film, fixed bed reactor; assay type: physicochemical; conditions: raw active, 250 mg, 22° C.; for NO2 Adsorbed Amount: 505 ppm of NO2
Experimental: as §1

[5] = Raw active and film studies with propranolol: Nitroso-propranolol (NPO) by LC-MS; assay type: physicochemical; conditions: raw active 5 g in pouch in 250 ml bottle with 1 g propranolol; 50° C./75% RH, 4 weeks
Experimental: Raw active or film with active were tested in 250 ml bottles with 1 g of propranolol (beads), to measure formation of Nitroso-propranolol (NPO). When present, the film (2 pieces of A2×2 inches) was wrapped inside bottle(s). Raw active (5 g) was placed in a pouch inside bottle(s).
Humidity was provided by vials containing a salt solution: ASAPprime™ vials (FreeThink Technologies, Branford CT, USA). A screw cap was used, with no induction seal.
NPO was directly measured by LC-MS (liquid chromatography-mass spectroscopy). The detection limit is approximately 1% of the results reported.

[6] = FDA acceptable intake limit; cited from earlier work
[7] = Maximum daily dose (MDD) and acceptable intake (AI) for each nitrosamine formed by each drug
[8] = Effect of raw active on nitrite, headspace GC (modified FDA protocol); assay type: physicochemical; conditions: raw active 50 mg in GC vial with sulfuric acid + potassium nitrite, 24 hours at 60° C., estimated ppm of nitrous acid in headspace
Experimental: The active sachet was placed inside the GC vial and sealed and aged for 24 hours at 60° C. Controls only contained the liquid. GC was conducted on the headspace using a modified version of the FDA protocol for GC-MS/MS to detect nitrite. […] Food & Drug Administration (FDA), Apr. 29, 2019, published online.

[9] = acceptable intake of the nitrosamine per day; cited from earlier work

## Vitamin A
[1]
  Nitrite (% decrease): 11.3%

## O=C(O)/C=C/c1ccc(O)c(O)c1 [Caffeic Acid]
[1]
  Nitrite (% decrease): 31.6%

## Vitamin E
[1]
  Nitrite (% decrease): 89.8%
[2]
  Nitrite (% decrease): 31.6%
[3]
  NO Adsorbed Amount: 0.16 mg/g
[4]
  NO2 Adsorbed Amount: 4.95 mg/g

## O=C([O-])O.[Na+] [Sodium Bicarbonate]
[1]
  Nitrite (% decrease): 57.7%
[2]
  Nitrite (% decrease): 72.8%
[3]
  NO Adsorbed Amount: 0.14 mg/g
[4]
  NO2 Adsorbed Amount: 2.24 mg/g

## CC(C)=CCC/C(C)=C/C=C/C(C)=C/C=C/C(C)=C/C=C/C=C(C)/C=C/C=C(C)/C=C/C=C(\C)CCC=C(C)C [Lycopene]
[1]
  Nitrite (% decrease): 23.7%

## COC1=C(OC)C(=O)C(C/C=C(\C)CC/C=C(\C)CC/C=C(\C)CC/C=C(\C)CC/C=C(\C)CC/C=C(\C)CC/C=C(\C)CC/C=C(\C)CC/C=C(\C)CCC=C(C)C)=C(C)C1=O [Coenzyme Q10]
[1]
  Nitrite (% decrease): −7.8%

## N[C@@H](CS)C(=O)O [L-cysteine]
[5]
  NPO (% Decrease): 2%

## CCN(CC)N=O [NDEA, N-nitrosodiethylamine]
[6]
  AI Limit: 26.5 ng/day

## [Cl-].[Na+] [Sodium Chloride]
[1]
  Nitrite (% decrease): 86.8%
[2]
  Nitrite (% decrease): 99.9%
[3]
  NO Adsorbed Amount: 0.34 mg/g
[4]
  NO2 Adsorbed Amount: 2.00 mg/g

## OC[C@H]1O[C@@H]2O[C@H]3[C@H](O)[C@@H](O)[C@@H](O[C@H]4[C@H](O)[C@@H](O)[C@@H](O[C@H]5[C@H](O)[C@@H](O)[C@@H](O[C@H]6[C@H](O)[C@@H](O)[C@@H](O[C@H]7[C@H](O)[C@@H](O)[C@@H](O[C@H]8[C@H](O)[C@@H](O)[C@@H](O[C@H]1[C@H](O)[C@H]2O)O[C@@H]8CO)O[C@@H]7CO)O[C@@H]6CO)O[C@@H]5CO)O[C@@H]4CO)O[C@@H]3CO [Beta Cyclodextrin Powder, Beta Cyclodextrin]
[1]
  Nitrite (% decrease): 25.6%
[4]
  NO2 Adsorbed Amount: 2.96 mg/g

## Cl [Hydrochloric Acid]
[1]
  Nitrite (% decrease): 14.4%

## CC1=C(/C=C/C(C)=C/C=C/C(C)=C/C=C/C=C(C)/C=C/C=C(C)/C=C/C2=C(C)C(=O)[C@@H](O)CC2(C)C)C(C)(C)C[C@H](O)C1=O [Astaxanthin]
[1]
  Nitrite (% decrease): 35.0%

## O=NN1CCC(c2ccccc2)CC1 [1-nitroso-4-phenylpiperdine]
[7]; 4-Phenylpiperdine (CPCA Calculated), MDD (ketophrofen) 200 mg
  AI (ppm): 2 ppm
[7]; 4-Phenylpiperdine (CPCA Calculated), MDD (meperide) 600 mg
  AI (ppm): 0.67 ppm
[7]; 4-Phenylpiperdine (CPCA Calculated), MDD (pethidine) 400 mg
  AI (ppm): 1 ppm
[7]; average of the three MDD-based values
  average AI: 1.2 ppm

## O=C([O-])[O-].[Ca+2] [Calcium Carbonate]
[1]
  Nitrite (% decrease): 46.9%
[3]
  NO Adsorbed Amount: 0.15 mg/g
[4]
  NO2 Adsorbed Amount: 7.75 mg/g
[4]; 505 ppm of NO2, listed as calcium carbonate
  NO2 Adsorbed Amount (mg/g): most effective NO2 adsorber from amongst the raw actives tested

## Nc1ccc(C(=O)O)cc1 [4-aminobenzonic acid]
[5]
  NPO (% Decrease): 7%

## O=S(=O)([O-])[O-].[Ca+2] [Calcium Sulfate]
[1]
  Nitrite (% decrease): 22.2%

## CN(CCCC(=O)O)N=O [NMBA]
[6]
  AI Limit: 96 ng/day

## O=C1O[C@H]([C@@H](O)CO)C(O)=C1O [Ascorbic Acid, L-ascorbic acid]
[1]
  Nitrite (% decrease): 23.7%
[8]
  Nitrite (ppm): 0.08 ppm
[8]; listed as Ascorbic acid
  Nitrite (ppm): most effective raw active at decreasing the level of nitrite
[2]
  Nitrite (% decrease): −111.1%
[3]
  NO Adsorbed Amount: 0.14 mg/g
[4]
  NO2 Adsorbed Amount: 2.50 mg/g
[5]
  NPO (% Decrease): 9%

## CCCOC(=O)c1cc(O)c(O)c(O)c1 [Propyl Gallate]
[1]
  Nitrite (% decrease): 3.2%

## CC1=C(/C=C/C(C)=C/C=C/C(C)=C/C=C/C=C(C)/C=C/C=C(C)/C=C/C2=C(C)C[C@@H](O)CC2(C)C)C(C)(C)C[C@H](O)C1 [Zeaxanthin]
[1]
  Nitrite (% decrease): 26.6%

## Sodium Alginate
[1]
  Nitrite (% decrease): 27.7%

## CN(C)N=O [NDMA, N-nitrosodimethylamine]
[9]
  AI /day: 96 ng
[6]
  AI Limit: 96 ng/day
[7]; Ranitidine, MDD 320 mg
  AI (ppm): 0.3 ppm

## CC(C)N(N=O)C(C)C [NDIPA, N-nitrosodi-2-propylamine]
[6]
  AI Limit: 26.5 ng/day

## CN(CC(O)c1cccc(O)c1)N=O (stereo not drawn) [1-nitroso-phenylephrine]
[9]
  AI /day: 100 ng
[7]; Phenylephrine, MDD 60 mg
  AI (ppm): 1.67 ppm

## COc1cc(/C=C/C(=O)O)ccc1O [Ferulic Acid]
[1]
  Nitrite (% decrease): 61.7%
[4]
  NO2 Adsorbed Amount: 3.27 mg/g

## O=C([O-])[O-].[Mg+2] [Magnesium Carbonate]
[1]
  Nitrite (% decrease): 33.9%
[4]
  NO2 Adsorbed Amount: 8.03 mg/g

## [O]=[Fe][O][Fe]=[O] [Ferric Oxide]
[1]
  Nitrite (% decrease): 14.3%

## [Cl-].[Cl-].[Mg+2] [Magnesium Chloride]
[1]
  Nitrite (% decrease): −15.7%

## CCN(N=O)C(C)C [NIPEA]
[6]
  AI Limit: 26.5 ng/day

## O=C1O[C@H]([C@@H](O)CO)C([O-])=C1O.[Na+] [Sodium Ascorbate]
[5]
  NPO (% Decrease): 9%
